From US7589077B2, “Antiviral nucleosides” (priority 2001, dated 2009)
Where two headings read alike, the source gives them in different places.

How the values were obtained:
[1] = tested on: Epstein-Barr Virus (EBV); test: EBV immunofluorescence assay in DAUDI cells (P3HR-1 strain); assay type: cell-based
Procedure: The immunofluorescence assay, using monoclonal antibodies, for Epstein-Barr Virus (EBV) was performed as follows: DAUDI cells were infected with the P3HR-1 strain of EBV and the test drug was added after adsorption (45 min. at 37° C.) and washing of the cell cultures. These cultures were then incubated for 2 days in complete medium to allow viral gene expression. Following the 48 h incubation period, the number of cells in each sample were counted and smears were made. Monoclonal antibodies to the different early antigen (EA) components and VCA were than added to the cells, incubated and washed. This was followed by the addition of a fluorescein conjugated rabbit anti mouse Ig antibodies. The number of fluorescence positive cells in the smears were counted and the total number of cells in the cultures positive for EA or VCA were then calculated and compared.

[2] = tested on: HFF cells; test: Cell viability in HFF cells (neutral red); assay type: cell-based, human
Procedure: Twenty-four hours prior to assay HFF cells were plated into 96 well plates at a concentration of 2.5×10^4 cells per well. […] The plates were incubated for 7 days in a CO2 incubator at 37° C. At this time the media/drug was aspirated and 200 μL/well of 0.01% neutral red in Dulbecco's Phosphate Buffered Saline (DPBS) was added. This was incubated in the CO2 incubator for 2 h, the dye was aspirated and the cells were washed using a Nunc Plate Washer. After removing the DPBS wash, […] of 50% EtOH: 1% glacial acetic acid in water was added. The plates were rotated for 15 min. and the optical densities were read at 550 nm on a plate reader.

[3] = tested on: CEM cells; test: Cell cytotoxicity in CEM cells; assay type: cell-based; conditions: Table 3a
[4] = tested on: human HBV; test: HBV DNA replication in HepG2 2.2.15 cells; assay type: cell-based, hepatitis B virus; conditions: Table 3a; read-out: % Inhibition of human HBV DNA replication in HepG2 2.2.15 cells EC50
Procedure: The compounds were assayed for a) their ability to inhibit DHBV DNA replication in duck hepatocytes, b) their ability to inhibit HBV DNA replication in HepG2 2.2.15 cells, c) the cell cytotoxicity in Vero cells, the cell viability in HFF cells, d) the cell proliferation in HFF cells, and e) the T cell proliferation (purified T cells, PHA stimulated). 3-TC was used as a control. Additional compounds described below in the Preparative Examples section were also tested, and the results are shown in Tables 2-4 below. The reference numbers for the compounds are found in the Preparative Examples.

[5] = tested on: VZV (Ellen); test: CPE inhibition assay VZV (Ellen) in HFF cells; assay type: cell-based, varicella zoster virus
Procedure: (§1) Cytopathic effect (CPE) inhibition assays for HSV-1, HSV-2, HCMV and VZV were performed as follows: Low passage human foreskin fibroblasts (HFF) cells were seeded into 96 well tissue culture plates 24 h prior to use at a cell concentration of 2.5×10^4 cells per mL in 0.1 mL of minimal essential medium (MEM) supplemented with 10% fetal bovine serum (FBS). The cells were then incubated for 24 h at 37° C. in a CO2 incubator. After incubation, the medium was removed and 100 μL of MEM containing 2% FBS was added to all but the first row. In the first row, 125 μL of experimental drug was added in triplicate wells. Medium alone was added to both cell and virus control […]. After incubation, the medium was removed and 100 μl of MEM containing 2% FBS was added to all but the first row. Medium alone was added to both cell and virus control wells. 125 μl of Experimental drug was added in triplicate wells. The drug in the first row of wells was then diluted serially 1:5 throughout the remaining wells by transferring 25 μL using the Cetus Liquid Handling Machine. After dilution of drugs, 100 μL of the appropriate virus concentration was added to each well, excluding the cell control wells which received 100 μL of MEM. For HSY-1 and HSV-2 assays, the virus concentration utilized was 1000 PFU's per well. For CMV and VZV assays, the virus concentration added was 2500 PFU's per well. The plates were then incubated at 37° C. in a CO2 incubator for 3 days for HSV-1 and HSV-2, 10 days for VZV, or 14 days for CMV. After the incubation period, media was aspirated and the cells stained with a 0.1% crystal violet solution for 30 min. The stain was then removed and the plates were allowed to dry 24 h and then read on a Skatron Plate Reader at 620 nm.

[6] = tested on: whole human PBLs; test: Cell proliferation, whole human PBLs; assay type: cell-based; conditions: Table 1
[7] = tested on: HSV-2 (MS); test: CPE inhibition assay HSV-2 (MS) in HFF cells; assay type: cell-based, Herpes simplex virus type-2; conditions: Table 4
Procedure: as §1

[8] = tested on: HSV-1 (KOSSB) HSV-TK−; test: microbe, parasite or virus in culture; assay type: cell-based, Herpes simplex virus type-1; conditions: Table 4
Procedure: as §1, with “The” for “Cytopathic effect (CPE) inhibition assays for HSV-1, HSV-2, HCMV and VZV were performed as follows: Low passage human foreskin fibroblasts (HFF) cells were seeded into 96 well tissue culture plates 24 h prior to use at a cell concentration of 2.5×10^4 cells per mL in 0.1 mL of minimal essential medium (MEM) supplemented with 10% fetal bovine serum (FBS). The”

[9] = tested on: HCMV (AD169); test: CPE inhibition assay HCMV (AD169) in HFF cells; assay type: cell-based, human cytomegalovirus; conditions: Table 4
Procedure: as §1

[10] = tested on: HSV-1 (E-377); test: CPE inhibition assay HSV-1 (E-377) in HFF cells; assay type: cell-based, Herpes simplex virus type-1; conditions: Table 4
Procedure: as §1

[11] = tested on: duck hepatitis B virus (DHBV); test: DHBV DNA replication in primary duck hepatocytes (dot blot hybridization); assay type: cell-based
Procedure: A series of compounds were synthesized and assayed for activity against duck hepatitis B virus (DHBV). […] Test compounds were added to the hepatocyte cultures on day 2 and maintained in culture with media changed every second day until day 12. Cell were harvested at day 14 and lysed with buffer containing 1% SDS. DNA was isolated from the lysate and dot blot hybridization was performed using a DHBV (32P) DNA probe. […]
(§2) The compounds were assayed for a) their ability to inhibit DHBV DNA replication in duck hepatocytes, b) their ability to inhibit HBV DNA replication in HepG2 2.2.15 cells, c) the cell cytotoxicity in Vero cells, the cell viability in HFF cells, d) the cell proliferation in HFF cells, and e) the T cell proliferation (purified T cells, PHA stimulated). 3-TC was used as a control.

[12] = tested on: Vero cells; test: Cell cytotoxicity in Vero cells; assay type: cell-based; conditions: Table 1
Procedure: as §2

[13] = tested on: HSV-1 (KOS) HSV-TK+; test: HSV-1 (KOS) HSV-TK+ antiviral assay; assay type: cell-based, Herpes simplex virus type-1; conditions: Table 4
Procedure: as §1

Compound	EBV EC50 ([1]; Table 3a)	EBV EC90 ([1]; Table 3a, in parentheses)	CC50 ([2]; Table 3a, read-out: Cell viability HFF cells CC50)	CC50 [3]	EC50 [4]	VZV (Ellen) EC50 ([5]; Table 3a)	IC50 [6]	EBV EC50 ([1]; Table 4)	HSV-2 (MS) EC50 [7]	HSV-1 (KOSSB) HSV-TK− EC50 [8]	HCMV (AD-169) EC50 [9]	CC50 ([2]; Table 1, read-out: Cell viability, HFF cells, CC50 μM)	HSV-1 (E-377) EC50, μg/ml [10]	% Inhibition of DHBV DNA replication in duck hepatocytes @10 μg/ml [11]	VZV (Ellen) EC50 ([5]; Table 4)	CC50 [12]	HSV-1 (KOS) HSV-TK+ EC50 [13]
CCO[C@@H]1C(Cl)C(=O)NC(=O)N1[C@H]1C[C@H](F)[C@@H](CO)O1 (single isomer, unassigned; (+)) [RB-2]	0.15 to 0.3 µg/mL	9.8 µg/mL	> 330 µM	> 200 µM	2.8 µM	0.3 µg/mL											
(5R,6R)5-fluoro-O^6-5′-cyclo-5,6-dihydro-3′-azido-3′-deoxythymidine [Compound R-14]							> 350 µM	<0.08 µg/mL	>100 µg/mL	>50 µg/mL	>100 µg/mL	> 350 µM	>100 μg/ml	81.0%	>100 µg/mL	100 to 200 µM	>25 µg/mL
